In patent US20250304705A1, “BIOTIN ORTHOGONAL STREPTAVIDIN SYSTEM” (UNIVERSITY OF UTAH RESEARCH FOUNDATION, priority 2022, published 2025):

How the values were obtained:
D-SA = test: binding of D-biotin to D-SA, by mirror-image symmetry from L-biotin/L-SA ITC; settings: orthogonality, inferred by mirror-image symmetry
Source text: As detailed herein, mirror-image SA and biotin (D-SA/L-biotin) offer an elegant solution to circumvent the limitations encountered with L-SA/D-biotin systems. For example, D-proteins are inert to L-proteases and therefore cannot be digested for MHC presentation to the immune system. […] Therefore, it is proposed that D-SA/L-biotin can be used as a biotin orthogonal streptaviding system (BOSS). Without wishing to be bound by theory, it is hypothesized that the orthogonality of BOSS, along with D-SA's low immunogenicity, will overcome the limitations of natural SA/biotin.
First, a control isothermal titration calorimetry (ITC) experiment was performed. […] This titration data was fit using Origin software to calculate binding stoichiometry (N=0.97±0.003 sites) and enthalpy (ΔH=−27.72±0.18 kcal/mol), as shown in FIG. 2A.

[1] = biological target: T1, L-SA (recombinant SA, Novus Biologicals) (Streptomyces avidinii, UniProt P22629); test: isothermal titration calorimetry (ITC), biotin enantiomer titrated into recombinant L-SA; format: binding; settings: fit using Origin software
T1 construct: purchased Novus Biologicals
T1 sequence (P22629 37-163): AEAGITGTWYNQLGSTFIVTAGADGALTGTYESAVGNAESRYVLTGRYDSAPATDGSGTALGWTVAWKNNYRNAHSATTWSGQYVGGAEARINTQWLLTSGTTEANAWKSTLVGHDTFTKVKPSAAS
Procedure: First, a control isothermal titration calorimetry (ITC) experiment was performed.

SMILES: O=C(O)CCCC[C@@H]1SC[C@@H]2NC(=O)N[C@@H]21 [D-biotin]
- binding to D-SA (D-SA): minimal binding
- enthalpy (ΔH) [1]: -27.72 ± 0.18 kcal/mol
